Source: patent publication US9499601B2, “Molecular probe for sphingolipids” (Agency for Science, Technology and Research, priority 2006, dated 2016)
Where no end group is shown, it is not given here.

How the values were obtained:
[1] = system: liposomes of raft-like composition (SM:Ch:POPC) with or without GM1, GD1a, GCB; POPC liposomes; experiment: Liposome binding, fluorescence retained after centrifugal filtration; conditions: control
SH-SY5Y neuroblastoma = experiment: Live-cell uptake under cholesterol depletion (MβCD); format: cell-based, human; conditions: only after 2 h of cholesterol depletion
[2] = Lipid-protein overlay (fat blot); format: binding; conditions: Sphingostrips, relatively low amounts of lipids (100 nmole equivalents)
neuroblastoma cells = experiment: Live-cell uptake after glycosphingolipid depletion with Fumonisin B1; format: cell-based, human; conditions: 10 μM FB1
[3] = system: detergent resistant membrane fractions from human neuroblastomas, SH-SY5Y; experiment: Dot blot binding to isolated DRM density-gradient fractions; conditions: fractions 1-12, 1 top (detergent insoluble)
[4] = Lipid-protein overlay (fat blot); format: binding
[5] = Lipid-protein overlay (fat blot); format: binding, bovine
[6] = Lipid-protein overlay (fat blot); format: binding; remark: listed apart in the source
[7] = Lipid-protein overlay (fat blot); format: binding; remark: listed apart in the source
[8] = system: Drosophila c6 neuronal cells; experiment: Labelling of Drosophila c6 neuronal cells with SBD, SBD* and SBD^scr peptides; format: cell-based
Drosophila c6 cells = experiment: Cholesterol depletion measured with Amplex Red Cholesterol Assay kit; format: cell-based; conditions: for reduction of cholesterol: 10 mM, 30 min, whole cell lysates
Protocol: Cholesterol depletion and overload: Cells were incubated in 4 mM or 10 mM Methyl-β-cyclo-dextrin (MβCD) (Sigma, USA) for 30 min in serum-free medium, and washed. AMPLEX RED™ Cholesterol Assay kit (Invitrogen) was used to measure cholesterol concentrations in cell extracts before OPTIPREP™ gradient formation and later on DRM fractions generated. For cholesterol excess, 10 mM MβCD-cholesterol-complexes were prepared as described previously and incubated with cells at 25° C. for 30 min before labelling. After treatment cells were further incubated in complete medium with FBS.
Drug treatments: For cholesterol depletion cells were incubated in 10 mM Methyl-b-cyclo-dextrin (MbCD) (Sigma, USA) for 30 min in serum-free medium, and washed. AMPLEX RED™ Cholesterol Assay kit (Invitrogen) was used to measure cholesterol concentrations in cell extracts before OPTIPREP™ gradient formation and later on DRM fractions generated.
Treatments that inhibit cholesterol synthesis or that remove cholesterol from membranes are known to disrupt lipid rafts. Methyl-β-cyclo-dextrin (MβCD) was used to deplete Drosophila c6 (FIG. 13) and neuroblastoma cells (data not shown) of cholesterol and related sterols (see Methods), and looked at the effect on SBD binding. First, the effectiveness of the MβCD treatment was tested by measuring total cholesterol levels using the AMPLEX RED™ kit (Invitrogen). On c6 cells, cholesterol was reduced by 42% after 30 min, and the distribution of the remaining cholesterol became more uniform across the density gradient (FIG. 13C).

[9] = spotted strips, 1000-2000 nmole equivalents lipid
[10] = spotted strips, 1000-2000 nmole equivalents lipid, listed as scrambled version of the peptide
[11] = peptide at higher concentrations (20 μM)
[12] = peptide at higher concentrations (20 μM), listed as mutated peptide

CtxB-Alexa594
retention on GM1 liposomes compared with GD1a or no glycolipid [1]: retained more strongly
uptake under cholesterol depletion (SH-SY5Y neuroblastoma): reduced rate of uptake

CtxB [reference compound]
interaction with GM1 [2]: recognize
uptake after Fumonisin B1 (FB1) treatment (neuroblastoma cells): not affected
binding to density-gradient fractions (dot blot) [3]: typical two-peak distribution

FYHDESEFGHAVEQFGRDVEAVHDL [SBD-scr-myc]
interaction with sphingomyelin [4, 9]: interacted approximately as well
interaction with GM1 ([2]; listed as SBD scr-myc): interact
interaction with GM1 ([2]; listed as SBD-scr): showed signal
interaction with galactocerebrosides [5, 9]: bind
interaction with GD1a [6, 9]: bind
interaction with GD1a [6, 10]: interacted approximately as well
interaction with GD1b [7, 9]: bind
interaction with GD1b [7, 10]: interacted approximately as well

DAEFAHDSGAEVHHQELVFFAEDVG [SBD**-myc]
interaction with SM ([4]; peptide at 5 μM): fails to show any interaction
interaction with SM [4, 11]: fails to show any interaction
interaction with SM [4, 12]: not
interaction with galactocerebrosides ([5]; peptide at low concentrations): interacted
interaction with GD1a ([6]; peptide at 5 μM): fails to show any interaction
interaction with GD1a [6, 11]: only weakly interacts
interaction with GD1a [6, 12]: bound very weakly
interaction with GD1b ([7]; peptide at low concentrations): very weakly

Transferrin-Alexa594: marker of clathrin-mediated uptake
uptake after Fumonisin B1 (FB1) treatment (neuroblastoma cells): not significantly altered
uptake after Fumonisin B1 (FB1) treatment (neuroblastoma cells; listed as Tfr): essentially unaltered

FYHDESEFGHAVEQFGRDVEAVHDL (not fully specified; also: fluorophore, identity and site not given here) [SBD^scr]
internalized punctae (number and intensity) ([8]; Oregon Green conjugates, 10 μM each): much reduced
concentration needed for binding to cells ([8]; c6 cells (FIG. 1B)): ≥ 50 µM

Methyl-β-cyclo-dextrin [MβCD]
reduction of cholesterol (Drosophila c6 cells): 42%
reduction of cholesterol (Drosophila c6 cells; listed as M[…]CD): over 40%
depletion of total cholesterol (Drosophila c6 cells; Example 1): 40%

B1: Lysenin: sphingomyelin-binding protein toxin from earthworm (protein, UniProt O18423 1-297, looked up)
Lysenin: MSAKAAEGYEQIEVDVVAVWKEGYVYENRGSTSVDQKITITKGMKNVNSETRTVTATHSIGSTISTGDAFEIGSVEVSYSHSHEESQVSMTETEVYESKVIEHTITIPPTSKFTRWQLNADVGGADIEYMYLIDEVTPIGGTQSIPQVITSRAKIIVGRQIILGKTEIRIKHAERKEYMTVVSRKSWPAATLGHSKLFKFVLYEDWGGFRIKTLNTMYSGYEYAYSSDQGGIYFDQGTDNPKQRWAINKSLPLRHGDVVTFMNKYFTRSGLCYDDGPATNVYCLDKREDKWILEVVG
interaction with Sphingomyelin (spot 5) ([4]; Sphingostrips): recognize
binding to density-gradient fractions (dot blot) [3]: bound to non-DRM fractions
